The values that follow come from paper PMC6358863, “Involvement of the Hydroperoxy Group in the Irreversible Inhibition of Leukocyte-Type 12-Lipoxygenase by Monoterpene Glycosides Contained in the Qing Shan Lu Shui Tea” (Molecules, 2019).

Assay [1] addresses T1, 15-lipoxygenase (Homo sapiens, UniProt P16050).
T1 sequence (P16050 1-662): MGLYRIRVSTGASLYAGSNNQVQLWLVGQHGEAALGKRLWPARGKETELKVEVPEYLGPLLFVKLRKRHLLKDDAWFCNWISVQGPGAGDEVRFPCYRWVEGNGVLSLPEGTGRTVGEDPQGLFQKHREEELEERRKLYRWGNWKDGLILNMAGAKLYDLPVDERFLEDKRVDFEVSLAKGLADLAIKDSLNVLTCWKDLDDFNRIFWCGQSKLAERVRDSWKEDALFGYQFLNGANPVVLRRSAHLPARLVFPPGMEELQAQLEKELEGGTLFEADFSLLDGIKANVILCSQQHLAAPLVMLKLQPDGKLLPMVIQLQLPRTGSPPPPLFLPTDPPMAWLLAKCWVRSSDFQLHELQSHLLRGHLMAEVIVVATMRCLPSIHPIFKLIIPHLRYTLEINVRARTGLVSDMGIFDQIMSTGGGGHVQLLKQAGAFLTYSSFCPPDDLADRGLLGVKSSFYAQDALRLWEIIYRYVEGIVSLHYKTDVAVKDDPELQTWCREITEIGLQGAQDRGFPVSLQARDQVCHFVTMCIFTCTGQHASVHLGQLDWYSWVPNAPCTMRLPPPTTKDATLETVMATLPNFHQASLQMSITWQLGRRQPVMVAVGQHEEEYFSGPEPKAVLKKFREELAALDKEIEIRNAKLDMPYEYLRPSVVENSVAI
Nature of the assay: 15-lipoxygenase inhibition assay. As to conditions: 25 μM arachidonic acid, 30 °C, 5 min. The assay is classed as biochemical. The procedure: (§1) Figure 6 Inhibition of various lipoxygenase and cyclooxygenase activities by liguroside A. Reactions were carried out under the standard conditions in the presence of liguroside A at various concentrations and the products were quantified, using a reverse-phase HPLC. Relative enzyme activities of the 15-lipoxygenase-1 (closed circles), platelet-type 12-lipoxygenase (open circles), 5-lipoxygenase (open lozenges), cyclooxygenase-1 (open triangles), and cyclooxygenase-2 (closed triangles), as compared to the activity without inhibitors, are shown.
(§2) The lipoxygenase and cyclooxygenase reactions were carried out, as described previously. […] The products extracted with ice-cold diethyl ether were analyzed by a reverse-phase HPLC, using a Waters Alliance system equipped with a COSMOSIL 5C18-MS-II column (5-μm particle, 250 × 4.6 mm i.d., Nacalai), with a solvent system of methanol-water-acetic acid (80:20:0.01, v/v), at a flow rate of 1 mL/min, as previously described. Absorption at 235 nm was continuously monitored, using a Waters 2489 UV/Visible detector (Waters, Milford, MA, USA). Protein concentration was determined using a bicinchoninic acid protein assay kit (Thermo Fisher Scientific, Waltham, MA, USA), with bovine serum albumin as a standard.

Assay [2] concerns the target cyclooxygenase-1 (Homo sapiens, UniProt P23219). Nature of the assay: cyclooxygenase-1 inhibition assay. As to conditions: 25 μM linoleic acid, 24 °C, 5 min. The assay is classed as biochemical. On the procedure: as §1, §2
Assay [3] deals with T2, cyclooxygenase-2 (Homo sapiens, UniProt P35354).
T2 sequence (P35354 18-604): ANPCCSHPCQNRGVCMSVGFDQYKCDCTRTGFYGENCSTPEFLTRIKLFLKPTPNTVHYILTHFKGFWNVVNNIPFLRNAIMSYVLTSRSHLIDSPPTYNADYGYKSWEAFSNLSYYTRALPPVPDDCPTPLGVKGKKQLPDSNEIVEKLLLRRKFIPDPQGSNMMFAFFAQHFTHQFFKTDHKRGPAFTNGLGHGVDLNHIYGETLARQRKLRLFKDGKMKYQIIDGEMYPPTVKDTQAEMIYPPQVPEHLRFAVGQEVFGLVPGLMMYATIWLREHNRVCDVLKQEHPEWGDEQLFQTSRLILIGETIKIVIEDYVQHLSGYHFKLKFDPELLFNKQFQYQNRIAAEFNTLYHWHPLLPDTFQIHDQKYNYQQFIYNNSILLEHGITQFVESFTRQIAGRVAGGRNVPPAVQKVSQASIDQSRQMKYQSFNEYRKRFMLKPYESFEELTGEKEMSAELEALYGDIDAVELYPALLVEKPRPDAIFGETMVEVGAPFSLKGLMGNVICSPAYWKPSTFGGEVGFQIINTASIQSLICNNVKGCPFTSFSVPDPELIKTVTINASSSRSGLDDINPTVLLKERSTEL
As to the kind of experiment: cyclooxygenase-2 inhibition assay. In kind it is biochemical. As to conditions: 25 μM linoleic acid, 24 °C, 5 min. The procedure:
as §1, §2

For assay [4], the target named is T3, platelet-type 12-lipoxygenase (Homo sapiens, UniProt P18054).
T3 sequence (P18054 1-663): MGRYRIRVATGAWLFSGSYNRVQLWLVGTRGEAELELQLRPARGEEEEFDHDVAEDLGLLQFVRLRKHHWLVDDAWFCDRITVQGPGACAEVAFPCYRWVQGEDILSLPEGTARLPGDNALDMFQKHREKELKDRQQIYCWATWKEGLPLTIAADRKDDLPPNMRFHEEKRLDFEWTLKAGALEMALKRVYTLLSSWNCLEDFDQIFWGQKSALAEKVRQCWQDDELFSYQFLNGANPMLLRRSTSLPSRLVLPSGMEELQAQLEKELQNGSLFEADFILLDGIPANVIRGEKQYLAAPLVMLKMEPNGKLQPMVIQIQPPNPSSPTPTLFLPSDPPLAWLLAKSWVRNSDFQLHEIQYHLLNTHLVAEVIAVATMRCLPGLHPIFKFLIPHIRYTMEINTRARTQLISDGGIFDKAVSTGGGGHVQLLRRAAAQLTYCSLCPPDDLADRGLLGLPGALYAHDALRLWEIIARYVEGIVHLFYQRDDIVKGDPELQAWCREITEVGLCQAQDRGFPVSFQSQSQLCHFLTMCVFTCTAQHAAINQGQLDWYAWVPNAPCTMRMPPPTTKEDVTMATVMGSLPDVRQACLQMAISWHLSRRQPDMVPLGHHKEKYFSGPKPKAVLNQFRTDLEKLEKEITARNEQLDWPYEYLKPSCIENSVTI
As to the kind of experiment: platelet-type 12-lipoxygenase inhibition assay. In kind it is biochemical. As to conditions: up to 100 μM; 30 min at 37 °C. The procedure: as §1, §2

Assay [5] deals with T4, leukocyte-type 12-lipoxygenase (Mus musculus, UniProt P39654).
T4 sequence (P39654 1-663): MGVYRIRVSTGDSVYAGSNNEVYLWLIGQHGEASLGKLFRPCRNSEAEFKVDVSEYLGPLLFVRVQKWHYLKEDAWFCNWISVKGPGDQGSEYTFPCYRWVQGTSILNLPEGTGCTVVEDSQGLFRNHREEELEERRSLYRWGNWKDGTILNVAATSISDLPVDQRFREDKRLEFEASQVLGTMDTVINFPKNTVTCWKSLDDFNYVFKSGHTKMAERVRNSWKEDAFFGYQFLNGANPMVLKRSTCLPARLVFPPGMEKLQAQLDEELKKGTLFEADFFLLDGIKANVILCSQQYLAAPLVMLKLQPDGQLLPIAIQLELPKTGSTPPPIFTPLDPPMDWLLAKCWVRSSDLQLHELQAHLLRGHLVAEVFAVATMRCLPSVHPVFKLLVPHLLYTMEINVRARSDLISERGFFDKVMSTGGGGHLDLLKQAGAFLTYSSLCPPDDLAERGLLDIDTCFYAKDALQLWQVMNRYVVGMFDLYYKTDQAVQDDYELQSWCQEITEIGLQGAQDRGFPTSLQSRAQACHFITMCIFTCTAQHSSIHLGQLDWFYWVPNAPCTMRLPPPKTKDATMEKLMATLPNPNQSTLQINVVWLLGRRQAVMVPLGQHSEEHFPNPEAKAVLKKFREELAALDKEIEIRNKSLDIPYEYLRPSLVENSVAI
The arrangement: method as in PMID 23579993. As to conditions: previous report; read-out: IC50, inhibition of leukocyte-type 12-lipoxygenase activity; cited from earlier work.

Structures are written as SMILES.

Sequence of cyclooxygenase-1 (P23219 24-599, species assumed): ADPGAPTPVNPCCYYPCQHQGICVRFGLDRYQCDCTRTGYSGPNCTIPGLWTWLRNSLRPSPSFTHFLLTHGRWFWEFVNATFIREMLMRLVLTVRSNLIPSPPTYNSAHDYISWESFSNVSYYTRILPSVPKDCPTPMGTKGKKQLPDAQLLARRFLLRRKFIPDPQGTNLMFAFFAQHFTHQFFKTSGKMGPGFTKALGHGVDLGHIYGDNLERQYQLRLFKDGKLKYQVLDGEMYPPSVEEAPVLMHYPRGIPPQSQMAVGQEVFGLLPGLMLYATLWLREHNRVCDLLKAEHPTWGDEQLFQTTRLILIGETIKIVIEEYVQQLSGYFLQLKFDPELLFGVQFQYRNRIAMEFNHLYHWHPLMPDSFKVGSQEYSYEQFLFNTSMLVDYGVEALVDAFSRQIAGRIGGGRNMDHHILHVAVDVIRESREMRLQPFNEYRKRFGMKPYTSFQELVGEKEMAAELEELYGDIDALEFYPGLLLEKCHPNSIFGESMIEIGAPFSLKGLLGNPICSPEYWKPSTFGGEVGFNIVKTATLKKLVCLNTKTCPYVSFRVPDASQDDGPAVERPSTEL

As a reminder, the IC50 is the concentration that gives 50% inhibition. With `C/C(=C\CO[C@@H]1O[C@H](CO)[C@@H](OC(=O)/C=C/c2ccc(O)cc2)[C@H](O[C@@H]2O[C@@H](C)[C@H](O)[C@@H](O)[C@H]2O)[C@H]1O)C/C=C/C(C)(C)OO` [liguroside A], the IC50 in assay [1] is 3.2 µM; in assay [2], 21.5 µM; in assay [3], 16.9 µM; in assay [5], 1700 nM. In addition, the “effect on platelet-type 12-lipoxygenase activity (in words)” value in assay [4] was “almost unaffected”.
